Data as given in patent US3981997A, “Analgesic compositions comprising 1H- or respectively 2H-indazolone-3 (β-morpholino-alkoxy) compounds” (Temmler Werke-Vereinigte Chemische Fabriken, priority 1970, dated 1976).
Like-named read-outs stand apart in the source and are kept apart here.

Experiments:
[1] = Acute oral toxicity in the mouse (LD50, 7-day observation); assay type: in vivo; conditions: in vivo, read-out: Mean lethal dosage (LD50)
mouse [2] = test: as above; assay type: in vivo; conditions: Table I, relative to effective substance, 10080 min
mouse [3] = test: animal or person; conditions: for ED50: Mus musculus; for Writhing Test: mean effective dosage (ED50) / Hot plate: mean effective dosage (ED50) / Hot plate: relative therapeutic index (Th.I.) / Writhing Test: relative therapeutic index (Th.I.): mouse; for Writhing Test: mean effective dosage (ED50) / Hot plate: mean effective dosage (ED50): relative to effective substance; for Writhing Test: mean effective dosage (ED50): 30 min; for Hot plate: mean effective dosage (ED50): 60 min
Experimental: The mice were kept without food during a period of 18 hours prior to the commencement of the tests. The test substances were administered orally in a methyl-cellulose-mucic (slime) by means of a probe. The observation period for the toxicity tests was 7 days. […] The pre-medication periods were 60 minutes in the first test arrangements. […] The percentage of the non-reacting animals was used to compute the ED50. […] Since the reaction times of the control group animals were log-normally distributed an analgetic effect was assumed in the treated animals if the logarithm of the reaction time of an animal was above the mean value range plus twice the standard deviation of the control group animals.

rat [4] = test: animal or person; assay type: in vivo
Experimental: According to Table II and with reference to the method described by A. HERZ (Naunyn-Schmiedeberg's Arch. Pharmakol., 242, 414, 1962) with rats by electrical stimulation of the root of the tail by means of continuously increasing the current a threshold of pain was determined which threshold was characterized in that the animals commenced to squeak in synchronism with the stimulation. When maintaining the selected test conditions these threshold values indicated as percent variations against the initial values prior to the treatment remained practically constant over a period of several hours in a test with control animals. Since these values are furthermore also normally distributed it is possible to quantitatively determine analgetic effects by determining the number of animals whose threshold values exceed during a test run the range defined by the mean value plus twice the standard deviation.
To determine the mean effective dosage ED50) determinations of the threshold of pain were made in 30 minute intervals with groups of 12 female rats each, each rat having a body weight from 160 to 360 grams, and these determinations were made prior to and after the treatment with at least 3 doses of the test substances which were administered orally in a 2 % methyl-cellulose-mucic by means of a probe. […] In this manner, not only the intensity but also the duration of the effect were taken into consideration when determining the ED50 since the analgesia must be sustained for at least 90 minutes.

[5] = Overall analgetic effect and compatability [sic]; conditions: in vivo
rat [6] = assay type: in vivo
[7] = Acute oral toxicity in the rat (LD50); conditions: in vivo
[8] = po, 0.5 h, read-out: Writhing Test: mean effective dosage (ED50)
[9] = po, 1 h, read-out: Hot plate: mean effective dosage (ED50)
[10] = Table I, oral, LD10/ED90, relative to aminophenazone = 1,00
[11] = po, Table II, rat, p.o., relative to effective substance, read-out: Mean effective dosage (ED50), analgetic effect on rats
[12] = Table IV, rat, oral, read-out: Mean effective dosage (ED50), electrical stimulation of root of the tail (HERZ)
[13] = Table IV, oral, LD10/ED90, relative to aminophenazone = 1.00
[14] = Table I, relative to effective substance

CCOc1ccc(NC(C)=O)cc1 [phenacetine]
LD50 at 168 h ([1]; Table III): 1250 mg/kg
Mean lethal dosage (LD50) (mouse [2]): 1250 mg/kg body weight
ED50 (mouse [3]; [8]): 107 mg/kg
ED50 (mouse [3]; [9]): 530 mg/kg
Writhing Test: mean effective dosage (ED50) (mouse [3]; Table I, oral): 107 mg/kg body weight
Hot plate: mean effective dosage (ED50) (mouse [3]; Table I, oral): 530 mg/kg body weight
Hot plate: relative therapeutic index (Th.I.) (mouse [3]; [10]): 1,71
Writhing Test: relative therapeutic index (Th.I.) (mouse [3]; [10]): 0,66
Hot plate: relative therapeutic index (Th.I.) (mouse [3]; in vivo, po): 1.93
Writhing Test: relative therapeutic index (Th.I.) (mouse [3]; in vivo, po): 0.74
Relative effectivity, relative to aminophenazone = 1.00 (rat [4]; Table II, rat, p.o.): 1.86
ED50 (rat [4]; [11]): 123 mg/kg

Br.C1CCc2c(n[nH]c2OCCN2CCOCC2)C1 [3-(β-morpholino-ethoxy)-4,5,6,7-tetrahydro-2H-indazole-hydrobromide]
analgetic activity (in words) [5]: Analgetically particularly active

CC(=O)Oc1ccccc1C(=O)O [acetylsalicylate]
LD50 at 168 h ([1]; Table III): 835 mg/kg
Mean lethal dosage (LD50) (mouse [2]): 835 mg/kg body weight
ED50 (mouse [3]; [8]): 107 mg/kg
ED50 (mouse [3]; [9]): 500 mg/kg
Writhing Test: mean effective dosage (ED50) (mouse [3]; Table I, oral): 107 mg/kg body weight
Hot plate: mean effective dosage (ED50) (mouse [3]; Table I, oral): 500 mg/kg body weight
Hot plate: relative therapeutic index (Th.I.) (mouse [3]; [10]): 1,67
Writhing Test: relative therapeutic index (Th.I.) (mouse [3]; [10]): 0,80
Hot plate: relative therapeutic index (Th.I.) (mouse [3]; in vivo, po): 1.88
Writhing Test: relative therapeutic index (Th.I.) (mouse [3]; in vivo, po): 0.91
Relative effectivity, relative to aminophenazone = 1.00 (rat [4]; Table II, rat, p.o.): 0.67
ED50 (rat [4]; [12]): 340 mg/kg
relative therapeutic index (rat [6]; [13]): 0.28
LD50 [7]: 1400 mg/kg

Br.c1ccc2c(OCCN3CCOCC3)n[nH]c2c1 [3-(β-morpholino-ethoxy)-1H-indazole-hydrobromide]
LD50 at 168 h [1, 14]: 615 mg/kg
ED50 (mouse [3]; [8]): 46 mg/kg
ED50 (mouse [3]; [9]): 142 mg/kg
Hot plate: relative therapeutic index (Th.I.) (mouse [3]; [10]): 3,53
Writhing Test: relative therapeutic index (Th.I.) (mouse [3]; [10]): 1,30
Relative effectivity, relative to aminophenazone = 1.00 (rat [4]; Table II, rat, p.o.): 6.84
ED50 (rat [4]; [11]): 34 mg/kg
analgetic activity (in words) [5]: Analgetically particularly active

Cc1c(N(C)C)c(=O)n(-c2ccccc2)n1C [aminophenazone]
LD50 at 168 h ([1]; Table III): 550 mg/kg
Mean lethal dosage (LD50) (mouse [2]): 550 mg/kg body weight
ED50 (mouse [3]; [8]): 50 mg/kg
ED50 (mouse [3]; [9]): 283 mg/kg
Writhing Test: mean effective dosage (ED50) (mouse [3]; Table I, oral): 50 mg/kg body weight
Hot plate: mean effective dosage (ED50) (mouse [3]; Table I, oral): 283 mg/kg body weight
Hot plate: relative therapeutic index (Th.I.) (mouse [3]; [10]): 1,00
Writhing Test: relative therapeutic index (Th.I.) (mouse [3]; [10]): 1,00
Hot plate: relative therapeutic index (Th.I.) (mouse [3]; in vivo, po): 1.00
Writhing Test: relative therapeutic index (Th.I.) (mouse [3]; in vivo, po): 1.00
Relative effectivity, relative to aminophenazone = 1.00 (rat [4]; Table II, rat, p.o.): 1.00
ED50 (rat [4]; [12]): 229 mg/kg
relative therapeutic index (rat [6]; in vivo, po): 1.00
LD50 [7]: 1350 mg/kg

COc1ccc2c3c1O[C@H]1[C@@H](O)C=C[C@H]4[C@@H](C2)N(C)CC[C@@]341 [codeine phosphate]
LD50 at 168 h [1, 14]: 265 mg/kg
ED50 (mouse [3]; [8]): 14 mg/kg
ED50 (mouse [3]; [9]): 115 mg/kg
Hot plate: relative therapeutic index (Th.I.) (mouse [3]; [10]): 1,49
Writhing Test: relative therapeutic index (Th.I.) (mouse [3]; [10]): 1,92
ED50 (rat [4]; Rattus norvegicus, po, read-out: Mean effective dosage (ED50), analgetic effect on rats): 22 mg/kg
Relative effectivity, relative to aminophenazone = 1.00 (rat [4]; Table II, rat, p.o.): 10.50

c1ccc2c(OCCN3CCOCC3)n[nH]c2c1 [3-(β-morpholino-ethoxy)-1H-indazole]
analgetic activity (in words) [5]: Analgetically particularly active

c1ccc2c(OCCCN3CCOCC3)n[nH]c2c1 [3-(γ-morpholino-propoxy)-1H-indazole]
analgetic activity (in words) [5]: Analgetically particularly active

C1CCc2c(n[nH]c2OCCN2CCOCC2)C1 [3-(β-morpholino-ethoxy)-4,5,6,7-tetrahydro-2H-indazole]
LD50 at 168 h ([1]; Table III): 1720 mg/kg
ED50 (mouse [3]; [8]): 94 mg/kg
ED50 (mouse [3]; [9]): 540 mg/kg
Hot plate: relative therapeutic index (Th.I.) (mouse [3]; in vivo, po): 2.67
Writhing Test: relative therapeutic index (Th.I.) (mouse [3]; in vivo, po): 2.07
ED50 (rat [4]; [12]): 143 mg/kg
relative therapeutic index (rat [6]; [13]): 1.62
LD50 [7]: 1600 mg/kg
